Experimental data published in US20150278436A1, “Methods For Evaluating Effects Of A Treatment On Biological Processes And Pathways” (The Procter & Gamble Company, priority 2014, published 2015).
Values belong to the compound of their own block, whether it stands above or below them.

Legend:
Assay type in all cases: cell-based
[1] = test system: innate and adaptive immunity processes/pathways; experiment: Percentile of treatment anti-aging effect on Gene Ontology processes/pathways (FIG. 8)
Excerpt: (§1) In general, the method computes a distance between two vectors (i.e., a vector distance), and determines the statistical significance of the vector distance to assess the effect of a treatment on a particular biological pathway. The first of the two vectors is a set of expression changes representing the treatment effect of an ingredient on genes in the biological pathway, and includes one value for each of the genes in the biological pathway. The second of the vectors is a set of expression changes representing the effect of the condition on the genes of the biological pathway. By comparing the vector distance between the two vectors against an empirical distribution of vector distances, the significance of the effect of the treatment on the biological pathway can be determined. […]
(§2) While the vector distance for a treatment and a target biological pathway is indicative of the effect of the treatment on the target biological pathway, the vector distance by itself is not indicative of the significance of the effect relative to other effects on other biological pathways. The statistical significance of a particular vector distance may be extrapolated from an empirical distribution of vector distances calculated using reference genomics data such as connectivity map (CMap) genomics data. […]

[2] = test system: cholesterol metabolism processes/pathways; experiment: Percentile of treatment anti-aging effect on Gene Ontology processes/pathways (FIG. 6); conditions: for effect on the cholesterol metabolism processes/pathways: processes/pathways 100a-h, associated with fibroblasts
Excerpt: (§3) In general, the method computes a distance between two vectors (i.e., a vector distance), and determines the statistical significance of the vector distance to assess the effect of a treatment on a particular biological pathway. The first of the two vectors is a set of expression changes representing the treatment effect of an ingredient on genes in the biological pathway, and includes one value for each of the genes in the biological pathway. The second of the vectors is a set of expression changes representing the effect of the condition on the genes of the biological pathway. By comparing the vector distance between the two vectors against an empirical distribution of vector distances, the significance of the effect of the treatment on the biological pathway can be determined. The genes corresponding to each biological pathway/process and represented in each of the vectors are specified by Gene Ontology, KEGG pathway, WikiPathway, and/or any other known source.
Specific methods and calculations will now be described using the examples above in which the target treatment is Pal-KTTKS (and others) and the target condition is aging of skin cells. Throughout, UV-mediated aging may also be referred to as “photo-aging,” and cells subject to photo-aging may be referred to as “UV-exposed skin cells” or “skin cells exposed to UV radiation.” Similarly, non-UV-mediated aging may also be referred to as “intrinsic aging,” and cells subject to intrinsic aging may be referred to as “non-UV-exposed skin cells.” The treatment effect—in this case the anti-aging effect—of a specified ingredient (e.g., Pal-KTTKS) is measured by the vector distance (e.g., cosine distance) between two vectors of expression changes (e.g., log 2 fold expression changes) of genes in a target biological process. […]
as §2
Using the distributions, a percentile may be calculated for the vector distance between the clinical and treatment vectors. Specifically, the percentile among the extreme region of the distribution for the i-th target biological process is calculated according to […]

[3] = test system: ATPase regulation processes/pathways; experiment: Percentile of treatment anti-aging effect on Gene Ontology processes/pathways (FIG. 7)
Excerpt: as §1, §2

[4] = test system: cholesterol biosynthesis pathway; experiment: Vector (cosine) distance between treatment and clinical aging gene expression vectors, with percentile in the reference genomics distribution (FIG. 4)
Excerpt: as §3
In the case of a study of the effects of a particular agent, Pal-KTTKS (e.g., at 3 ppm concentrations), on aging of skin cells, for example, a particular biological process may be targeted. For each of the genes in the target biological process, the expression changes (e.g., log 2 fold changes) between old and young cells may be calculated for cells exposed to ultraviolet (UV) radiation (e.g., cells taken from the arms), for cells not exposed to UV radiation (e.g., cells taken from the buttocks), or for both. That is, the condition genomics data 34 may be compared to the control genomics data 33 to determine the expression change for each of the genes in the target biological process. The expression changes between treated and untreated cells may also be calculated for each of the genes in the target biological process, which in some implementations may include comparing the control genomics data 33 to the treatment genomics data 32. Each set of expression changes (where each set comprises an expression change for each of the genes in the target biological process) forms a corresponding vector, and the vector for the treatment effect (also referred to hereafter as the “treatment vector”) is compared to the vector for the reference effect (e.g., the vector for old/young cells), which is also referred to herein as a “clinical vector,” by taking the distance (e.g., cosine distance) between the vectors.
Specific methods and calculations will now be described using the examples above in which the target treatment is Pal-KTTKS (and others) and the target condition is aging of skin cells. Throughout, UV-mediated aging may also be referred to as “photo-aging,” and cells subject to photo-aging may be referred to as “UV-exposed skin cells” or “skin cells exposed to UV radiation.” Similarly, non-UV-mediated aging may also be referred to as “intrinsic aging,” and cells subject to intrinsic aging may be referred to as “non-UV-exposed skin cells.” The treatment effect—in this case the anti-aging effect—of a specified ingredient (e.g., Pal-KTTKS) is measured by the vector distance (e.g., cosine distance) between two vectors of expression changes (e.g., log 2 fold expression changes) of genes in a target biological process. One of the vectors compares treatment genomics data for the genes with control genomics data for the genes to represent the treatment effects on the genes (i.e., a “treatment effect vector” or “treatment vector” of the ingredient). […]

- effect on the ATPase regulation processes/pathways overall [3]: almost no effect
Compound: NC(=O)c1cccnc1 [Niacinamide]
- effect on the set 140 of innate and adaptive immunity pathways [1]: strong effect
- percentile values for innate and adaptive immunity processes/pathways ([1]; many of the percentile values, example threshold): < 5%
- percentile for steroid metabolic process (100b) ([2]; columns D and E, only single process below exemplary threshold): < 5%
- effect on the cholesterol metabolism processes/pathways ([2]; FIG. 6): likely does not strongly affect

- effect on the ATPase regulation processes/pathways overall [3]: almost no effect
Compound: Pal-KTTKS
- calculated percentile of vector distance in distribution from fibroblast reference genomics data, UV-mediated aging ([4]; 3 ppm on fibroblast cells, UV-exposed cells): 0.36
- cosine distance with the photo aging vector ([4]; 3 ppm on fibroblast cells, UV-exposed cells clinical vector, cholesterol biosynthesis pathway): −0.640
- calculated percentile of vector distance in distribution from fibroblast reference genomics data, intrinsic aging ([4]; 3 ppm on fibroblast cells, non-UV-exposed cells): 0.22
- cosine distance with the intrinsic aging vector ([4]; 3 ppm on fibroblast cells, non-UV-exposed cells clinical vector, cholesterol biosynthesis pathway): −0.720
- anti-aging benefit on the cholesterol synthesis pathway ([4]; both intrinsic and UV-mediated aging): strong anti-aging benefit
- percentile values for each of the biological processes/pathways 100a-h ([2]; cholesterol metabolism set, FIG. 6): very low percentile values
- effect on the cholesterol metabolism processes/pathways ([2]; FIG. 6): very strong effect
